This note sets out measurements from patent publication US20070197512A1, “Carboxylic Acid Compounds and Use Thereof” (Japan Tobacco Inc., priority 2006, published 2007).

One experiment deals with T1, human URAT1 (Homo sapiens, UniProt Q96S37).
T1 construct: Human URAT1 full length cDNA was subcloned to expression vector pcDNA3.1; expressed in transfected cells; host or cells: HEK293 cells (pcDNA3.1, geneticin-selected)
T1 sequence (Q96S37 1-553): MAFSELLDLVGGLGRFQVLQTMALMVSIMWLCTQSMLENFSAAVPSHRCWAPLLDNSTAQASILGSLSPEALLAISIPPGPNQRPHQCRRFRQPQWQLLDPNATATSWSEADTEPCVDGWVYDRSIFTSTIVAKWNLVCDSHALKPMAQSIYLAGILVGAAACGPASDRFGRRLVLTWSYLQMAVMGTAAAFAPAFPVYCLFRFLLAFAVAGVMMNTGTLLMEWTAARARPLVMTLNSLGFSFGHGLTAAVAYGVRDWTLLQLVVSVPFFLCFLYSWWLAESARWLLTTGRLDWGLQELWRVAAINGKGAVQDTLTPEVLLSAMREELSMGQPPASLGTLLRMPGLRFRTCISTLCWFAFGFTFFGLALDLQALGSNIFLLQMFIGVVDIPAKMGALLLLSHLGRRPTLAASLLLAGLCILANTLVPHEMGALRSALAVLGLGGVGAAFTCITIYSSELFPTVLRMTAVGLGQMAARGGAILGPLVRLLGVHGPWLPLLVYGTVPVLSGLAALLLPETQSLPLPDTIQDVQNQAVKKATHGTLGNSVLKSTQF
Put plainly: Uric acid transport inhibitory test using human URAT1-expressing cells. In kind it is cell-based. The note with it: human URAT1-expressing HEK293 cells, 14C-uric acid 50 μM, uptake 5 min, room temperature; read-out: hURAT1 IC50. The source says: Experimental Example 1 Uric Acid Transport Inhibitory Test Using Human URAT1-Expressing Cells
Human URAT1 full length cDNA was subcloned to expression vector pcDNA3.1 and human URAT1 gene was transfected into human embryonic kidney derived cell line (HEK293 cells) by liposome method using Lipofectamine2000. Simultaneously, HEK293 cells transfected with expression vector pcDNA3.1 alone (hereinafter mock cells) were also produced. HEK293 cells expressing human URAT1 gene or mock cells were selected with geneticin resistance as an index. The functional expression of human URAT1 gene was confirmed by a method similar to the following method, using ^14C-uric acid transport into the cells as an index.
Human URAT1-expressing HEK293 cells or mock cells were cultured in Dulbecco's modified Eagle's MEM medium (high glucose) containing 10% fetal bovine serum, 0.5 mg/mL geneticin sulfate, 100 units/mL penicillin and 100 μg/mL streptomycin under the conditions of 37° C. and 5% CO2 in an incubator. The cells were plated in a 96 well plate (poly-D-Lysine coated) at 1×10^5 cells/well and the following uric acid transport inhibitory test was performed 24 hr later. This test was performed at room temperature.
After the medium was removed by aspiration from each well, the cells were washed once with Hank's Balanced Salt Solution (HBSS) and preincubated with HBSS (100 μL/well) for 5 min. HBSS was aspirated and an assay buffer (wherein NaCl in the above-mentioned HBSS had been substituted with Na-gluconate) containing various concentrations of the Example compound and a radioactive ligand (14C-uric acid; final concentration 50 μM) was added to each well at 50 μL/well and an uptake reaction was carried out for 5 min. After the reaction, the cells were washed twice with ice-cold HBSS (150 μL/well), and Microscinti™ 20 (PerkinElmer) was added at 50 μL/well. The cells were lysed by stirring and the radioactivity of each well was measured by a liquid scintillation counter (TOP COUNT, Packard).
The uric acid transport rate (%) of the Example compound at each concentration was calculated relative to the radioactivity (difference in radioactivity between human URAT1-expressing HEK293 cells and mock cells without addition of Example compound (DMSO addition)) showing URAT1 specific uric acid transport as 100%, and the concentration (IC50) of the Example compound necessary for inhibiting the uric acid transport rate by 50% was determined. In Table 24-Table 27, “+++” means IC50 value of less than 300 nM, “++” means IC50 value of 300 nM to less than 3000 nM, and “+” means IC50 value of not less than 3000 nM.

The next experiment addresses T2, CYP2C9 (Homo sapiens, UniProt P11712).
T2 construct: Human liver microsome (20 mg protein/mL, 5 μL, Xenotech LLC, purchased from Lenexa Kans.); tissue Xenotech LLC; host or cells: human liver microsomes
Put plainly: CYP inhibitory test using human liver microsome. In kind it is in vitro ADME. As to conditions: model substrate diclofenac, 37° C., 10 min, read-out: CYP2C9 inhibition, IC50. How it is done:
Experimental Example 2 CYP Inhibitory Test Using Human Liver Microsome
Human liver microsome (20 mg protein/mL, 5 μL, Xenotech LLC, purchased from Lenexa Kans.) was suspended in 100 mM potassium phosphate buffer (70 μL, pH 7.4), mixed with a solution (0.5 μL) of the Example compound dissolved in DMSO and preincubated at 37° C. for 5 min. NADPH producing system coenzyme solution (β-nicotinamide adenine dinucleotide phosphate: 5.2 mM, D-glucose-6-phosphate: 13.2 mM, magnesium chloride: 13.2 mM, glucose-6-phosphate dehydrogenase: 1.8 U/mL) 25 μL, and a model substrate (CYP3A4: midazolam 1 mM, CYP2D6: bufuralol 1 mM, CYP2C9: diclofenac 2 mM) 0.5 μL dissolved in DMSO were added to start the reaction. After incubation at 37° C. for 10 min., acetonitrile (200 μL) containing an internal standard substance (propranolol 1 μM) was added and the mixture was centrifuged (room temperature, 3000 rpm, 20 min). The amount of the metabolite produced from each model substrate in the supernatant was measured by high performance liquid chromatography/mass spectrometry (LC/MS/MS) and each CYP enzyme activity was determined. The concentration showing 50% inhibition (IC50) was calculated relative to the enzyme activity without addition of Example compound (DMSO 0.5 μL added) as 100%.
As a comparative example, the CYP enzyme activity of the compound described in JP-A-3-135917 was examined by determining the IC50 value in the same manner as above.
(Liver microsomes are vesicles of endoplasmic reticulum, rich in cytochrome P450 enzymes.)

SMILES strings stand for the structures.

What is called IC50 is the concentration needed to halve the response being measured.

T2 sequence (P11712 whole entry): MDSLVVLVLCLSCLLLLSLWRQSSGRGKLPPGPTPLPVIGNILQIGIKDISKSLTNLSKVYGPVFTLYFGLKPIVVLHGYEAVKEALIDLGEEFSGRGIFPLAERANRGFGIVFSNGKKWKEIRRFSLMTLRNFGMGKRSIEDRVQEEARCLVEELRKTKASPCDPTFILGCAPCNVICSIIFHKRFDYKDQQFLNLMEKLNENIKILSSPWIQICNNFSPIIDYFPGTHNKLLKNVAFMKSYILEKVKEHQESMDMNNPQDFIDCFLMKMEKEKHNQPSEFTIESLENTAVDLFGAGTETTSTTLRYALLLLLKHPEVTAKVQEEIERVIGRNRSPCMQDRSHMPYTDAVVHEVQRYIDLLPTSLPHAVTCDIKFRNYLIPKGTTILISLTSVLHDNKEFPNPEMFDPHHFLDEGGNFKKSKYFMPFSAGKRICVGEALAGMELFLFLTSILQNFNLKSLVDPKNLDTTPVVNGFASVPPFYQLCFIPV

Consider `Cc1cc(C)c2c(c1)N(CCC(=O)O)C(=O)[C@@H](C(C)C)O2` [Example 74, 3-((R)-2-isopropyl-6,8-dimethyl-3-oxo-2,3-dihydrobenzo[1,4]oxazin-4-yl)propionic acid], for which the values for the IC50 at human URAT1 and at CYP2C9 were less than 0.3 µM and more than 50 µM, respectively. In the same order, the values of `CC(C)C1CN(C(=O)/C=C/C(=O)O)c2cc(Cl)ccc2O1` (stereo not drawn) [Example 69, (E)-4-(6-chloro-2-isopropyl-2,3-dihydrobenzo[1,4]oxazin-4-yl)-4-oxo-2-butenoic acid] are not below 3 µM and more than 50 µM. As for `Cc1cc(Cl)c2c(c1)N(CCC(=O)O)C(=O)[C@H](C(C)C)O2` [Example 109, 3-((S)-8-chloro-2-isopropyl-6-methyl-3-oxo-2,3-dihydrobenzo[1,4]oxazin-4-yl)propionic acid], the results for the IC50 on human URAT1 and at CYP2C9 were 0.3 to 3 µM and more than 50 µM, respectively. With `Cc1cc(Cl)cc2c1O[C@H](C(C)C)C(=O)N2CCC(=O)O` [Example 107, 3-((R)-6-chloro-2-isopropyl-8-methyl-3-oxo-2,3-dihydrobenzo[1,4]oxazin-4-yl)propionic acid], the IC50 on human URAT1 was less than 0.3 µM; on CYP2C9, more than 50 µM. Regarding `CC(C)c1cccc2c1OC(C(C)C)C(=O)N2CC(=O)O` (stereo not drawn) [Example 9, (2,8-diisopropyl-3-oxo-2,3-dihydrobenzo[1,4]oxazin-4-yl)acetic acid], the IC50 at human URAT1 was not below 3 µM; on CYP2C9, 30 µM.

For the compound `CCc1cc(C)c2c(c1)N(CCC(=O)O)C(=O)C(C(C)C)O2` (stereo not drawn) [Example 101, 3-(6-ethyl-2-isopropyl-8-methyl-3-oxo-2,3-dihydrobenzo[1,4]oxazin-4-yl)propionic acid], the values for the IC50 at human URAT1 and on CYP2C9 were less than 0.3 µM and more than 50 µM, respectively. As to `Cc1ccc2c(c1)N(C(=O)/C=C/C(=O)O)CC(C(C)C)O2` (stereo not drawn) [Example 64, (E)-4-(2-isopropyl-6-methyl-2,3-dihydrobenzo[1,4]oxazin-4-yl)-4-oxo-2-butenoic acid], the half-inhibitory concentration (IC50) at human URAT1 is 0.3 to 3 µM; on CYP2C9, more than 50 µM.

Take `CC(C)c1cccc2c1OC(C(C)C)C(=S)N2CC(=O)O` (stereo not drawn) [Comparative Example, reference compound]: the IC50 on CYP2C9 turned out to be 16 µM. On to `CC(C)c1cccc2c1OCC(=S)N2CC(=O)O` [Example 15, (8-isopropyl-3-thioxo-2,3-dihydrobenzo[1,4]oxazin-4-yl)acetic acid], for which the IC50 on human URAT1 was not below 3 µM. Turning to `CC(C)C1Sc2ccccc2N(CC(=O)O)C1=O` (stereo not drawn) [Example 30, (2-isopropyl-3-oxo-2,3-dihydrobenzo[1,4]thiazin-4-yl)acetic acid], on human URAT1, the IC50 was not below 3 µM. As to `CC(C)C1CN(C(=O)/C=C/C(=O)O)c2cccc(Br)c2O1` (stereo not drawn) [Example 78, (E)-4-(8-bromo-2-isopropyl-2,3-dihydrobenzo[1,4]oxazin-4-yl)-4-oxo-2-butenoic acid], at human URAT1, the IC50 was not below 3 µM. The same measure, in the same setting: next, `CC(C)c1cccc2c1OC(C(C)C)C(=O)N2CCCC(=O)O` (stereo not drawn) [Example 18, 4-(2,8-diisopropyl-3-oxo-2,3-dihydrobenzo[1,4]oxazin-4-yl)butyric acid]: not below 3 µM; `Cc1cc(Cl)cc2c1OC(C(C)C)C(=O)N2CCC(=O)O` (stereo not drawn) [Example 81, 3-(6-chloro-2-isopropyl-8-methyl-3-oxo-2,3-dihydrobenzo[1,4]oxazin-4-yl)propionic acid]: less than 0.3 µM. In the case of `CCCCC1Oc2c(C)cc(C)cc2N(CCC(=O)O)C1=O` (stereo not drawn) [Example 93, 3-(2-butyl-6,8-dimethyl-3-oxo-2,3-dihydrobenzo[1,4]oxazin-4-yl)propionic acid], the IC50 on human URAT1 lay in the range of 0.3 to 3 µM. For `CCc1cccc2c1OC(c1ccccc1)C(=O)N2CCC(=O)O` (stereo not drawn) [Example 59, 3-(8-ethyl-3-oxo-2-phenyl-2,3-dihydrobenzo[1,4]oxazin-4-yl)propionic acid], the IC50 on human URAT1 fell in the range of 0.3 to 3 µM. Still for that read-out and setting: the figure for `CC1(C)Oc2ccccc2N(CC(=O)O)C1=S` [Example 11, (2,2-dimethyl-3-thioxo-2,3-dihydrobenzo[1,4]oxazin-4-yl)acetic acid] is not below 3 µM. For the compound `CC(C)C1Oc2ccc(Cl)cc2N(CCC(=O)O)C1=O` (stereo not drawn) [Example 63, 3-(6-chloro-2-isopropyl-3-oxo-2,3-dihydrobenzo[1,4]oxazin-4-yl)propionic acid], at human URAT1, the IC50 is less than 0.3 µM. On the same count and under the same terms, the figure for `CC(C)C1CN(C(=O)/C=C/C(=O)O)c2ccc(Cl)cc2O1` (stereo not drawn) [Example 68, (E)-4-(7-chloro-2-isopropyl-2,3-dihydrobenzo[1,4]oxazin-4-yl)-4-oxo-2-butenoic acid] is 0.3 to 3 µM; for `O=C(O)CCC(=O)N1CCOc2ccccc21` [Example 23, 4-(2,3-dihydrobenzo[1,4]oxazin-4-yl)-4-oxobutyric acid] it is not below 3 µM; for `CC(C)C1Oc2c(cccc2C(C)(C)C)N(CCC(=O)O)C1=O` (stereo not drawn) [Example 46, 3-(8-tert-butyl-2-isopropyl-3-oxo-2,3-dihydrobenzo[1,4]oxazin-4-yl)propionic acid] it is not below 3 µM. Take `CC(C)c1cccc2c1O[C@H](C(C)C)C(=S)N2CC(=O)O` [Example 8, ((R)-2,8-diisopropyl-3-thioxo-2,3-dihydrobenzo[1,4]oxazin-4-yl)acetic acid]: the IC50 on human URAT1 was 0.3 to 3 µM. With `Cc1ccc2c(c1)OC(c1ccccc1)CN2C(=O)/C=C/C(=O)O` (stereo not drawn) [Example 57, (E)-4-(7-methyl-2-phenyl-2,3-dihydrobenzo[1,4]oxazin-4-yl)-4-oxo-2-butenoic acid], the IC50 at human URAT1 was not below 3 µM.

In the case of `Cc1cc(C)c2c(c1)N(CCC(=O)O)C(=O)C(C(C)C)O2` (stereo not drawn) [Example 61, 3-(2-isopropyl-6,8-dimethyl-3-oxo-2,3-dihydrobenzo[1,4]oxazin-4-yl)propionic acid], the concentration for half-maximal inhibition (IC50) on human URAT1 is less than 0.3 µM. Still for that read-out and setting: next, `O=C(O)CCCC(=O)N1CCOc2ccccc21` [Example 24, 5-(2,3-dihydrobenzo[1,4]oxazin-4-yl)-5-oxovaleric acid]: not below 3 µM; `CC(C)C1CN(C(=O)/C=C/C(=O)O)c2cccc(C(C)(C)C)c2O1` (stereo not drawn) [Example 52, (E)-4-(8-tert-butyl-2-isopropyl-2,3-dihydrobenzo[1,4]oxazin-4-yl)-4-oxo-2-butenoic acid]: not below 3 µM. Same read-out and setting: next, `O=C(O)CCN1C(=O)C(c2ccccc2)Oc2ccc(Cl)cc21` (stereo not drawn) [Example 77, 3-(6-chloro-3-oxo-2-phenyl-2,3-dihydrobenzo[1,4]oxazin-4-yl)propionic acid]: not below 3 µM.
